Legend:
adults with ADHD = assay: pilot crossover study in adults with ADHD: CAARS, CGI-ADHD-S, HAM-A, HAM-D; format: in vivo, human
From the text: In addition to the primary outcome, the Conner's Adult ADHD Rating Scale (CAARS), secondary rating scales, neuropsychological, and safety assessments were completed. Results: A total of 11 adults with well-characterized ADHD completed this crossover study. […] On the clinical efficacy endpoints, CAARS Total Symptom Score and CAARS Hyperactive/Impulsive score, a shallow inverted V-shaped dose-response curve was observed. However, the dose-response curve for attention and memory effects as measured by computerized cognitive testing seemed dose-linear. No clinically meaningful findings in safety assessments or side effect profile were observed.
Subjects between 18 and 60 years old who met the DSM-IV-TR criteria for ADHD as assessed by clinical interview and confirmed by the Washington University in St. Louis Kiddie Schedule for Affective Disorders and Schizophrenia (WASH-U-KSADS) diagnostic criteria for ADHD (Orvaschel 1985) (Geller et al 1998) were eligible for inclusion in the study. Furthermore, a score of ≧2 on at least six of nine items in at least one of the subscales of the Conner's Adult ADHD Rating Scale (CAARS) (Conners et al 1999) at screening and Day 1 and a score of ≧4 (i.e., at least moderate severity) on the Clinical Global Impressions-ADHD Severity (CGI-ADHD-S) test (Guy 1976) at screening were required. Exclusion criteria consisted of: smoker or user of nicotine product(s) in the three months prior to enrollment; clinically significant chronic medical conditions; current diagnosis or history of schizoaffective or bipolar disorder, obsessive-compulsive disorder, schizophrenia, or other psychotic disorder; current depression requiring treatment; serious homicidal or suicidal ideation; abnormal baseline laboratory values; drug or alcohol abuse/dependence within the last three months; current use of psychotropics or stimulants; and pregnant or lactating women. The following institutional review boards at Quorum IRB in Seattle, Wash., The Human Research Committee at the Lawrence House in Boston, Mass., the Institutional Board of Research Associates at the NYU School of Medicine in New York, N.Y., the New York Campus, Va. NY Harbor Healthcare Systems Subcommittee for human subjects, research and development subcommittee, and research safety subcommittee in New York, N.Y., the University of Vermont Committee on Human Research in Burlington, Vt., the Scientific Advisory Committee of Burlington, Vt., and the University of Chicago Hospitals IRB in Chicago, Ill. approved the study protocol, and all subjects provided written, informed consent.
Following an initial two-week medication washout and screening period, subjects entered an eight-week double-blind treatment period. […] A study design schematic is provided below in Table 1.
Raters for the CAARS were trained and certified prior to the start of the study. Investigator-administered CAARS, CGI-ADHD-S, Hamilton Anxiety Scale (HAM-A) (Hamilton 1959), and Hamilton Depression Scale (HAM-D) (Hamilton 1960) were administered to subjects at baseline and at the completion of each treatment period (Days 14, 28, 42, and 56). CMRS, HAM-A, and HAM-D ratings were based on the previous seven days. After being trained, subjects completed a computerized cognitive assessment battery (Simpson et al 1989), which was amended to include the Conner's Continuous Performance Test (Conners 1995) and the Stroop Color Word Test (Jensen and Rohwer 1966), at baseline and at the completion of each treatment period. Attentional tasks (simple and choice reaction time, digit vigilance), selective attention (Conner's CPT), working memory tasks (numeric and spatial working memory, rapid visual information processing), episodic secondary memory (immediate and delayed word recall, word and picture recognition), motor control tasks (tracking), and executive function (the Stroop effect) were among the items assessed. […]

[1] = pilot study: population PK plasma concentrations at steady state; format: in vivo, human
Experimental: Blood samples for pharmacokinetic analysis were taken at 0, 1, 2, 4, and 8 hours on Day 1 and at approximately 2 hours post-dose on the last day of each dosing period. The blood samples were immediately stored at 4° C. or below. The blood samples were centrifuged within one hour of collection using a refrigerated centrifuge to separate the plasma. The plasma samples were transferred using plastic pipettes into plastic vials. The plasma samples were frozen at −20° C. within one hour from centrifugation and remained frozen until shipped to Abbott Laboratories for analysis.
Due to limited pharmacokinetic sampling timepoints, trough and average concentrations were estimated using a non-linear mixed-effect pharmacokinetic modeling approach with NONMEM software Version V).

[2] = tested on: α4β2, α3β4, or α3β2 NNR subtypes; assay: ion channel flux in cells expressing NNR subtypes; format: cell-based
From the text: One method for assessing ion channel flux is via activation of ion flux into a cell expressed with recombinant α4β2, α3β4, or α3β2 NNR subtypes. Alternatively, a native cell line that expresses NNRs also can be suitable. The method can be accomplished under any suitable binding conditions. Examples of suitable binding conditions for [^3H]-cytisine binding have been described in the art, for example in at least U.S. Pat. Nos. 6,403,575 and 6,133,253, the procedures of which are herein incorporated by reference in their entirety. Data obtained from such ion channel flux assays can be evaluated to determine percent maximal nicotinic response (%), which directly correlates to percent maximal agonist efficacy.
Cells of IMR-32 human neuroblastoma clonal cell line (ATCC, Rockville, Md., USA) were maintained in a log phase of growth according to established procedures. Experimental cells were seeded at a density of 500,000 cells/mL into a 24-well tissue culture dish. Plated cells were allowed to proliferate for at least 48 hours before loading with 2 μCi/mL of ^86Rb^+ (35 Ci/mmol) overnight at 37° C. The ^86Rb^+ efflux assays were performed according to previously published protocols (Lukas, R. J., J. Pharmacol. Exp. Ther., 265, 294-302, 1993) except serum-free Dulbecco's Modified Eagle's medium was used during the ^86Rb^+ loading, rinsing, and agonist-induced efflux steps. […]

Cavg Mean (±SD), model-predicted, steady state ([1]; 2 mg bid): 4.47 (1.05) ng/mL
Ctrough Mean (±SD), model-predicted, steady state ([1]; 2 mg bid): 1.85 (0.79) ng/mL
Cavg Mean (±SD), model-predicted, steady state ([1]; 4 mg bid): 8.94 (2.09) ng/mL
Ctrough Mean (±SD), model-predicted, steady state ([1]; 4 mg bid): 3.69 (1.59) ng/mL
Cavg Mean (±SD), model-predicted, steady state ([1]; 20 mg bid): 44.7 (10.46) ng/mL
Ctrough Mean (±SD), model-predicted, steady state ([1]; 20 mg bid): 18.46 (7.95) ng/mL
Compound: Cc1ncccc1OC[C@@H]1CCCN1 [ABT-089, 2-methyl-3-(2-(S)-pyrrolidinylmethoxy)pyridine]
Hyperactive/impulsive score improvement vs. placebo (adults with ADHD; 2 mg and 4 mg doses): ~20%
Inattentive score improvement versus placebo (adults with ADHD; 2 mg and 20 mg doses): approximately 11%
CAARS Hyperactive/Impulsive subscale, least square mean (±SE) (adults with ADHD; 2 mg bid): 13.8 (0.9)
CAARS Inattentive subscale, least square mean (±SE) (adults with ADHD; 2 mg bid): 18.3 (1.2)
CGI-ADHD-S mean score (adults with ADHD; 2 mg dose): 3.92 (0.20)
effect size, CAARS total symptom score vs placebo (adults with ADHD; 2 mg twice daily): 0.92
CAARS Hyperactive/Impulsive subscale, least square mean (±SE) (adults with ADHD; 4 mg bid): 14.5 (0.9)
CAARS Inattentive subscale, least square mean (±SE) (adults with ADHD; 4 mg bid): 18.7 (1.2)
CGI-ADHD-S mean score (adults with ADHD; 4 mg dose): 4.09 (0.20)
effect size, CAARS total symptom score vs placebo (adults with ADHD; 4 mg twice daily): 0.76
CAARS Hyperactive/Impulsive subscale, least square mean (±SE) (adults with ADHD; 20 mg bid): 15.4 (0.9)
CAARS Inattentive subscale, least square mean (±SE) (adults with ADHD; 20 mg bid): 18.1 (1.2)
CGI-ADHD-S mean score (adults with ADHD; 20 mg dose): 4.12 (0.20)
effect size, CAARS total symptom score vs placebo (adults with ADHD; 20 mg twice daily): 0.71
effect on HAM-A or HAM-D scores (adults with ADHD; in vivo): no effect
agonist activity at NNRs expressed in vitro [2]: weak agonist activity

— US20070184490A1, “Neuronal nicotinic receptor ligands and their use” (priority 2006, published 2007)
